# Test results reported in US20160183526A1, “FUNGICIDAL COMPOSITIONS” (Dow AgroSciences LLC, priority 2014, published 2016).
# Assays:
# Assay type in all cases: physicochemical
# [1] = Approximate relative solubility of active ingredients in organic solvents at ambient temperature
# Experimental: The approximate solubility of Compound A was determined by mixing a known mass of the active ingredient with an increasing mass of each solvent at ambient temperature. […] The solubility of Compound A in the solvents used in this screening procedure was generally classified within the following concentration ranges: […]
# [2] = Solubility of a mixture of Compound A and prothioconazole in benzyl acetate/AMD810 blends at 10° C. (HPLC); conditions: both actives saturated
# Experimental: A study of the Compound A and prothioconazole solubility in blends of benzyl acetate/AMD810 was conducted. To each solvent blend both actives were added until each was saturated and the resulting mixtures were then stored at 10° C. until equilibrium was obtained. Aliquots of the supernatant layer were taken from each sample, filtered (0.45 μm mesh) and analyzed by HPLC to determine the solution concentration of each active in the blends.
# [3] = Solubility of Compound A and prothioconazole in benzyl acetate/AMD810/cyclohexanone blends at 10° C.; conditions: one week
# Experimental: A total of 20 g of each solvent blend was prepared per sample. For example, one of the blends (Blend 4) was prepared by combining cyclohexanone 0.2 (4 g), benzyl acetate 0.2 (4 g) and AMD810 0.6 (12 g). To Blend 4 were added amounts of Compound A and prothioconazole technical active ingredients to achieve saturation concentrations of each. The samples were then stored at 10° C. for one week and then were analysed for soluble active ingredient content.
# [4] = Accelerated storage stability of Compound A in liquid compositions, 2 weeks at 54° C. (HPLC); conditions: 2 weeks 54° C.
# Experimental: The test compositions were prepared in a manner similar to that described in Example 1 using one or more of Compound A, prothioconazole, pyraclostrobin, benzyl acetate, and AMD 810, and a third solvent chosen from cyclohexanone, acetophenone, 2-heptanone, 2-heptanol, oleyl alcohol or 2-ethylhexanol.
# [5] = Approximate relative solubility of active ingredients in organic solvents at ambient temperature; remark: listed apart in the source
compound,measurement,setting,value
"COc1ccnc(C(=O)N[C@H]2COC(=O)[C@H](Cc3ccccc3)[C@@H](OC(=O)C(C)C)[C@H](C)OC2=O)c1OCOC(=O)C(C)C [Compound A, propanoic acid, 2-methyl-, [[4-methoxy-2-[[[(3S,7R,8R,9S)-9-methyl-8-(2-methyl-1-oxopropoxy)-2,6-dioxo-7-(phenylmethyl)-1,5-dioxonan-3-yl]amino]carbonyl]-3-pyridinyl]oxy]methyl ester]",Compound A content of clear solution,[1]; 0.2 g Compound A mixed with 1.38 g cyclohexanone,12.6 % w/w
same,Relative Solubility of Compound A,[1]; in 2-ethylhexanol,Very Low (<3.0)
same,Relative Solubility of Compound A,[1]; in Alkyl naphthalene mixture,Very Low (<3.0)
same,Relative Solubility of Compound A,[1]; in Benzyl acetate,High (>8.4)
same,Relative Solubility of Compound A,[1]; in Cyclohexanone,High (>8.4)
same,Relative Solubility of Compound A,[1]; in Isoparaffin,Very Low (<3.0)
same,Relative Solubility of Compound A,[1]; in Isopropyl benzoate,Medium (8.4 to 5.6)
same,Relative Solubility of Compound A,[1]; in Methyl oleate,Very Low (<3.0)
same,Relative Solubility of Compound A,[1]; in Methyl-5-(Dimethylamino)-2-Methyl-5-Oxopentanoate,High (>8.4)
same,Relative Solubility of Compound A,"[1]; in Pentanedioic acid, 2-methyl-1, 5-dimethyl ester",Medium (8.4 to 5.6)
same,Relative Solubility of Compound A,[1]; in Tributoxyethyl phosphate,Low (5.6 to 3.0)
same,Compound A Solubility at 10° C.,[2]; benzyl acetate 0 wt % in blend with AMD810,3.3 % w/w
same,Compound A Solubility at 10° C.,[2]; benzyl acetate 20 wt % in blend with AMD810,4.3 % w/w
same,Compound A Solubility at 10° C.,[2]; benzyl acetate 40 wt % in blend with AMD810,6.5 % w/w
same,Compound A Solubility at 10° C.,[2]; benzyl acetate 60 wt % in blend with AMD810,11.0 % w/w
same,Compound A Solubility at 10° C.,[2]; benzyl acetate 80 wt % in blend with AMD810,12.0 % w/w
same,Compound A Solubility at 10° C.,[2]; benzyl acetate 100 wt % in blend with AMD810,14.3 % w/w
same,Compound A Solubility @ 10° C.,[3]; Blend 1: cyclohexanone 0/benzyl acetate 0/AMD810 1 (weight fraction),3.3 % w/w
same,Compound A Solubility @ 10° C.,[3]; Blend 2: cyclohexanone 0/benzyl acetate 0.2/AMD810 0.8 (weight fraction),4.3 % w/w
same,Compound A Solubility @ 10° C.,[3]; Blend 3: cyclohexanone 0.2/benzyl acetate 0/AMD810 0.8 (weight fraction),4.5 % w/w
same,Compound A Solubility @ 10° C.,[3]; Blend 4: cyclohexanone 0.2/benzyl acetate 0.2/AMD810 0.6 (weight fraction),6.2 % w/w
same,Compound A Solubility @ 10° C.,[3]; Blend 5: cyclohexanone 0/benzyl acetate 0.4/AMD810 0.6 (weight fraction),6.5 % w/w
same,Compound A Solubility @ 10° C.,[3]; Blend 6: cyclohexanone 0.2/benzyl acetate 0.4/AMD810 0.4 (weight fraction),10.5 % w/w
same,Compound A Solubility @ 10° C.,[3]; Blend 7: cyclohexanone 0/benzyl acetate 0.6/AMD810 0.4 (weight fraction),11 % w/w
same,Compound A Solubility @ 10° C.,[3]; Blend 8: cyclohexanone 0/benzyl acetate 0.8/AMD810 0.2 (weight fraction),12 % w/w
same,Compound A Solubility @ 10° C.,[3]; Blend 10: cyclohexanone 0.2/benzyl acetate 0.6/AMD810 0.2 (weight fraction),13.6 % w/w
same,Compound A Solubility @ 10° C.,[3]; Blend 11: cyclohexanone 0/benzyl acetate 1/AMD810 0 (weight fraction),14.3 % w/w
same,Compound A Solubility @ 10° C.,[3]; Blend 12: cyclohexanone 0.2/benzyl acetate 0.8/AMD810 0 (weight fraction),15.2 % w/w
same,Compound A after Storage (% retention),"[4]; wt %: Compound A 3.4, AMD 810 96.0",49^ % retention
same,Compound A after Storage (% retention),"[4]; wt %: Compound A 4.1, pyraclostrobin 5.2, benzyl acetate 37.0, AMD 810 20.0, cyclohexanone 8.2, emulsifier blend 14.7",93^2 % retention
same,Compound A after Storage (% retention),"[4]; wt %: Compound A 4.9, benzyl acetate 94.1",85^ % retention
same,Compound A after Storage (% retention),"[4]; wt %: Compound A 4.9, prothioconazole 7.4, benzyl acetate 46.8, AMD 810 25.2, no third solvent, emulsifier blend 14.7",91^2 % retention
same,Compound A after Storage (% retention),"[4]; wt %: Compound A 4.9, pyraclostrobin 5.0, benzyl acetate 48.4, AMD 810 26.0, no third solvent, emulsifier blend 14.7",92^2 % retention
same,Compound A after Storage (% retention),"[4]; wt %: Compound A 4.9, pyraclostrobin 6.3, benzyl acetate 41.2, AMD 810 22.2, cyclohexanone 9.8",98^ % retention
same,Compound A after Storage (% retention),"[4]; wt %: Compound A 4.9, pyraclostrobin 6.3, benzyl acetate 44.4, AMD 810 23.9, 2-ethyl hexanol 4.9, emulsifier blend 14.7",96^2 % retention
same,Compound A after Storage (% retention),"[4]; wt %: Compound A 4.9, pyraclostrobin 6.3, benzyl acetate 44.4, AMD 810 23.9, 2-heptanol 4.9, emulsifier blend 14.7",94^2 % retention
same,Compound A after Storage (% retention),"[4]; wt %: Compound A 4.9, pyraclostrobin 6.3, benzyl acetate 44.4, AMD 810 23.9, 2-heptanone 4.9, emulsifier blend 14.7",93^2 % retention
same,Compound A after Storage (% retention),"[4]; wt %: Compound A 4.9, pyraclostrobin 6.3, benzyl acetate 44.4, AMD 810 23.9, acetophenone 4.9, emulsifier blend 14.7",94^2 % retention
same,Compound A after Storage (% retention),"[4]; wt %: Compound A 4.9, pyraclostrobin 6.3, benzyl acetate 44.4, AMD 810 23.9, oleyl alcohol 4.9, emulsifier blend 14.7",92^2 % retention
same,Compound A after Storage (% retention),"[4]; wt %: Compound A 5.0, pyraclostrobin 6.4, benzyl acetate 40.9, AMD 810 22.0, 2-ethyl hexanol 10.0",95^ % retention
same,Compound A after Storage (% retention),"[4]; wt %: Compound A 7.7, pyraclostrobin 9.8, benzyl acetate 37.1, AMD 810 20.0, cyclohexanone 9.6",97^ % retention
same,Compound A after Storage (% retention),"[4]; wt %: Compound A 7.8, pyraclostrobin 9.9, benzyl acetate 36.7, AMD 810 19.8, 2-ethyl hexanol 9.7",97^ % retention
same,Compound A after Storage (% retention),"[4]; wt %: Compound A 12.0, cyclohexanone 85.7",96^ % retention
same,Relative Solubility of Compound A,[5]; in 2-ethylhexyl benzoate,Very Low (<3.0)
same,Relative Solubility of Compound A,[5]; in 2-ethylhexyl lactate,Very Low (<3.0)
same,Relative Solubility of Compound A,[5]; in 2-heptanone,Medium (8.4 to 5.6)
same,Relative Solubility of Compound A,[5]; in Benzyl alcohol,High (>8.4)
same,Relative Solubility of Compound A,[5]; in Butyl benzoate,Medium (8.4 to 5.6)
same,Relative Solubility of Compound A,[5]; in Butyl lactate,Medium (8.4 to 5.6)
same,Relative Solubility of Compound A,[5]; in Butylene carbonate,Very Low (<3.0)
same,Relative Solubility of Compound A,[5]; in Di-n-butyl carbonate,Very Low (<3.0)
same,Relative Solubility of Compound A,[5]; in Diethylene glycol monoethyl ether,Low (5.6 to 3.0)
same,Relative Solubility of Compound A,[5]; in Ethyl Diglycol Acetate,Low (5.6 to 3.0)
same,Relative Solubility of Compound A,[5]; in Methyl salicylate,High (>8.4)
same,Relative Solubility of Compound A,"[5]; in N,N dimethyl fatty acid amides",Low (5.6 to 3.0)
same,Relative Solubility of Compound A,[5]; in N-formyl morpholine and propylene carbonate,High (>8.4)
same,Relative Solubility of Compound A,[5]; in Polyethylene glycol,Very Low (<3.0)
same,Relative Solubility of Compound A,[5]; in Polypropylene glycol,Very Low (<3.0)
same,Relative Solubility of Compound A,[5]; in Propylene carbonate,Very Low (<3.0)
same,Relative Solubility of Compound A,[5]; in Soybean oil,Very Low (<3.0)
same,Relative Solubility of Compound A,[5]; in Sulfolane,High (>8.4)
same,Relative Solubility of Compound A,"[5]; in dimethyl esters of adipic, glutaric and succinic acids",Low (5.6 to 3.0)
